Reference: patent US20130034536A1, “Bile Acid Recycling Inhibitors for Treatment of Pancreatitis” (Lumena Pharmaceuticals, Inc., priority 2011, published 2013)

System: plasma active GLP-1 levels
Assay: In vivo effects of ASBT inhibitor SC-435 on plasma active GLP-1 levels in rats (ELISA)
Design: species or system Sprague Dawley rats
Procedure: Male Sprague Dawley rats (HSD) 12 weeks old were fasted overnight for 16 hours.
SC-435 (racemate form synthesized at Nanosyn Inc. Menlo Park, Calif.) in 1 ml of saline administrated orally via gavage tube (n=5 per group).
Blood samples (200 μl) taken from the caudal vein with capillary tube at […] after compound administration for testing of plasma active GLP-1 levels (ELISA, Millipore Inc.)
Blood was collected in ice-cooled EDTA vial. Immediately (<30 seconds) after collection DPP-IV inhibitor added (10mkl per 1 ml blood). Samples were centrifuged immediately at 1000×g for 10 minutes in refrigerated centrifuge. Plasma was stored at −70° C. until evaluation.

## 1-[4-[4-[(4R,5R)-3,3-dibutyl-7-(dimethylamino)-2,3,4,5-tetrahydro-4-hydroxy-1,1-dioxido-benzothiepin-5-yl]phenoxy]butyl]-4-aza-1-azoniabicyclo[2.2.2]octane methanesulfonate salt [SC-435]
After oral SC-435 administration
  time of peak GLP-1 after administration: 3 to 5 h
Oral gavage, doses 3, 30 or 100 mg/kg, overnight-fasted male rats, dose-dependent
  increase of 5-hour integrated GLP-1 concentrations vs. vehicle: 2.5 fold
Plasma active GLP-1 after oral SC-435
  Peak GLP-1: 30 to 36 pM
